Columns and labels:
Cannabinoid receptor 1 [1] = molecular target: T1, Cannabinoid receptor 1 (Homo sapiens, UniProt P21554); experiment: biochemical
Cannabinoid receptor 2 [2] = molecular target: T2, Cannabinoid receptor 2 (Homo sapiens, UniProt P34972); experiment: Displacement of [3H]CP55940 from beta-galactosidase reporter fused human CB2 receptor expressed in CHOK1 cell membranes after 1 hr by scintillation spectrometric analysis
Cannabinoid receptor 1 [3] = molecular target: T1, Cannabinoid receptor 1; experiment: Displacement of [3H]CP55940 from beta-galactosidase reporter fused human CB1 receptor expressed in CHOK1 cell membranes at 1 uM after 1 hr by scintillation spectrometric analysis relative to control
Cannabinoid receptor 2 [4] = molecular target: T2, Cannabinoid receptor 2; experiment: Displacement of [3H]CP55940 from beta-galactosidase reporter fused human CB2 receptor expressed in CHOK1 cell membranes at 1 uM after 1 hr by scintillation spectrometric analysis

T2 sequence (P34972 whole entry, the tested form may be a part): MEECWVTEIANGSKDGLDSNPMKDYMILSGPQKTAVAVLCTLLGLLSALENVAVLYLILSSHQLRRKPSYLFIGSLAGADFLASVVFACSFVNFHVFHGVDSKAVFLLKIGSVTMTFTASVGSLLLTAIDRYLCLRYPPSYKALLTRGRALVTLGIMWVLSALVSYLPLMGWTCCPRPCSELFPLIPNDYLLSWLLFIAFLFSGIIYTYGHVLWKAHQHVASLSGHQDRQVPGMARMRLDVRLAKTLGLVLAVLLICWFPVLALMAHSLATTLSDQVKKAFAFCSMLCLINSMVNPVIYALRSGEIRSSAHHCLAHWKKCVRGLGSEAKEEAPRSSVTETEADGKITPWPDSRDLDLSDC
T1 sequence (P21554 whole entry, the tested form may be a part): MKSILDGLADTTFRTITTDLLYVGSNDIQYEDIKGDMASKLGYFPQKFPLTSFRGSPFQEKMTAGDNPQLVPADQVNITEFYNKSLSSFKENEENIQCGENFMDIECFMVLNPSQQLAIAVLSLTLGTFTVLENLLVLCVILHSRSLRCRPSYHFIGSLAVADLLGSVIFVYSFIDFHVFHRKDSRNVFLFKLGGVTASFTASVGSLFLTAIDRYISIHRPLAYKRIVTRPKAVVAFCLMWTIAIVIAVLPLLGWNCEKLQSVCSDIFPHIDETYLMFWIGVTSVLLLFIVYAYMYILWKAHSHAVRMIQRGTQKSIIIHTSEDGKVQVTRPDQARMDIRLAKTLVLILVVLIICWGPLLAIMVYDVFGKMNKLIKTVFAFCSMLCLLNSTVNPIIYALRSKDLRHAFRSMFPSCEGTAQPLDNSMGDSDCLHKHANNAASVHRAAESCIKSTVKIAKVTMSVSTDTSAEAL

SMILES | Ki (Cannabinoid receptor 1 [1]) [µM] | Ki (Cannabinoid receptor 2 [2]) [µM] | inhibition (Cannabinoid receptor 1 [3]) [%] | inhibition (Cannabinoid receptor 2 [4]) [%]
CCCCCCC(C)(C)c1cc(O)c2c(c1)OC(C)(C)[C@@H]1CC=C(CO)C[C@@H]21 | 0.00955 |  |  | 
O=C(CCc1nnc(-c2ccc(Br)cc2F)o1)Nc1ccc2c(c1)c1ccccc1n2CCF |  | 0.318 | -8 | > 50
O=C(CCc1nc(-c2ccc(Br)cc2F)no1)Nc1ccc2c(c1)c1ccccc1n2CCF |  |  | -5 | 
N#Cc1cc(F)ccc1-c1nnc(CCC(=O)Nc2ccc3c(c2)c2ccccc2n3CCF)o1 |  | 0.219 | -1 | > 50
N#Cc1cc(F)ccc1-c1nnc(CCC(=O)Nc2ccc3c(c2)c2ccccc2n3CCO)o1 |  |  |  | < 50
O=C(CCc1nnc(-c2ccc(F)cc2Br)o1)Nc1ccc2c(c1)c1ccccc1n2CCO |  |  |  | < 50
N#Cc1cc(F)ccc1-c1noc(CCC(=O)Nc2ccc3c(c2)c2ccccc2n3CCF)n1 |  |  | -8 | 
O=C(CCc1nnc(-c2ccc(F)cc2Br)o1)Nc1ccc2c(c1)c1ccccc1n2CCF |  | 0.025 | 22 | > 50
O=C(CCc1nnc(-c2ccc(Br)cc2F)o1)Nc1ccc2c(c1)c1ccccc1n2CCO |  |  |  | < 50

From ChEMBL document CHEMBL4261554, “Bioisosteric replacement of central 1,2,4-oxadiazole ring of high affinity CB2 ligands by regioisomeric 1,3,4-oxadiazole ring” (Medchemcomm, 2017)
